Entries after “also recorded” stand apart in the source; their conditions may differ.
Tested on: human periodontal ligament (HPDL) cells
Assay: ALP inducing activity of HPDL cells on cell culture system
Format: cell-based
Details: for ALP inducing activity of HPDL cells (amelogenins and peptides based on 6 kDa amelogenin): purified porcine amelogenins and synthetic peptides
Excerpt: Human periodontal ligament (HPDL) cells were obtained according to the method of Somerman et al., (1988) from healthy premolars which were extracted from the patients for orthodontic reasons. The cells were precultured for 4-6 passages with a-MEM medium to establish the primary cell line. The cells were maintained in the alpha modification of Eagle's medium (α-MEM; Life Technologies, Grand Island, N.Y., USA) containing 10% fetal bovine serum (FBS; Asahi Technoglass, Chiba, Japan) and 1% antibiotics (100 U/ml of Penicillin-G and 100 μg/ml of Streptomycin sulfate; Gibco BRL, Grand Island, N.Y., USA) at 37° C. in a humidified 5% CO2 atmosphere. The ST2 cells (Riken Cell Bank, Tsukuba, Japan), an osteoblast-like mouse bone marrow stromal cell line, were cultured under the same conditions.
HPDL cells were distributed in 96-well plates at a density of approximately 5×10^5 cells per a well and incubated for 24 h. The growth medium was then changed to contain 10 nM of 1α-25dihydroxy-Vitamin D3 (CALBIOCHEM, La Jolla, Calif.) and 50 μg/ml (final concentration) of fractionated enamel protein samples or synthesized peptides dissolved in ultrapure water. After 96 additional hours of incubation, the cells were washed once with PBS, and ALP activity was determined after a 10 min incubation at 37° C. in 10 mM p-nitrophenylphosphate (substrate) in 100 mM 2-amino-2-methyl-1,3-propanediol-HCl buffer (pH 10.0) containing 5 mM MgCl2. After adding 0.2 M NaOH, which stopped the reaction, the absorbance at 405 nm was read on a plate reader.
HPDL cells of approximately 5×10^5 cells per well were distributed in 96-well plates and incubated for 24 h. The growth medium was then changed to contain 10 nM of 1α-25dihydroxy-Vitamin D3 and 50 μg/ml (final concentration) of purified sheath protein or synthesized peptide. After 96 additional hours of incubation, ALP activity was determined using p-nitrophenylphosphate as a substrate.
The bioactivities of these synthetic peptides were tested their cytodifferentiation activity of HPDL cells and ST2 cells by determination of increasing ALP inducing activity on cell culture system. When these peptides applied in cell culture system, the concentration of their peptides was employed around 1 ng/ml. In the case of TGF-1, the concentration was 10 ng/ml.
Normal human periodontal ligament fibroblasts were maintained in an α-minimal essential medium (α-MEM) containing 10% fetal bovine serum, either with or without 10 nM 1α-25dihydroxy-vitamin D3 and 1% antibiotics (100 U/mL of penicillin G and 100 μg/mL of streptomycin sulfate) at 37° C. in a humidified atmosphere of air containing 5% CO2. Another cell line, ST2 cells, was obtained from an osteoblast-like mouse bone marrow stromal cell line. These cells were cultured in the same conditions as those described above.
The ALP inducing activities of synthetic peptides using the cell culture of HPDL cells and ST2 cells were examined. The HPDL cells were distributed in 96-well plates at a density of approximately 5×10^5 cells per well and incubated for 24 h. The medium was then changed to α-MEM containing 10 nM of 1α-25dihydroxy-vitamin D3 and either synthetic peptides or growth factors dissolved in ultra-pure water. After 96 h of incubation, the cells were washed once with phosphate-buffered saline, and 10 mM ρ-nitrophenylphosphate in 100 mM 2-amino-2-methel-1,3-propanediol-HCl buffer (pH 10.0) containing 5 mM MgCl2 was added. The ALP activity was determined after 10 min incubation at 37° C. and the absorbance at 405 nm was read using a plate reader, after adding 0.2 M NaOH to stop the reaction. […] When the synthetic peptides were applied in the cell culture system, their final concentrations were 25 or 50 μg/mL. A TGF-β1 receptor inhibitor (SB431542, 10 μM) was applied to the HPDL cell culture system to examine their influence relative to the ALP inducing activity of the synthetic peptides.

6 kDa amelogenin: derived from N-terminal side of 20 kDa amelogenin (MPLPPHPGHPGYINFSYEVLTPLKWYQNMIRHPYTSYGYEPMGGW; porcine 6 kDa amelogenin; listed as Sus scrofa)
ALP inducing activity of HPDL cells (amelogenins and peptides based on 6 kDa amelogenin): activity like TGF-β1; also recorded: strongest ALP inducing activity of HPDL cells

C=C1/C(=C\C=C2/CCC[C@]3(C)[C@@H]([C@H](C)CCCC(C)(C)O)CC[C@@H]23)C[C@@H](O)C[C@@H]1O [1α-25dihydroxy-vitamin D3, reference compound]
levels of ALP activity of HPDL cells by addition of 1α-25dihydroxy-vitamin D3 (10 nM, with application of ESP synthetic peptides or TGF-β1): enhanced and stabilized

NC(=O)c1ccc(-c2nc(-c3ccc4c(c3)OCO4)c(-c3ccccn3)[nH]2)cc1 [SB431542, reference compound]
ALP inducing activity of HPDL cells when adding TGF-β1 receptor inhibitor SB431542 (10 μM SB431542, 10 nM 1α-25dihydroxy-vitamin D3): significantly inhibited the activity of TGF-β1

A-1-1: shorter peptide synthesized based on the sequence of A-1 (MPLPPH; 6 aa from 1 to 6 in sequence 9, 14, 33 and 34; listed as Homo sapiens)
concentration at which the peptide promotes the bioactivity (ALP inducing activity of HPDL cells), high concentration (cell culture system): 1 µg/mL
ALP inducing activity of HPDL cells (amelogenins and peptides based on 6 kDa amelogenin): promote ALP inducing activity
ALP inducing activity of HPDL cells (amelogenins and peptides based on 6 kDa amelogenin) (listed as SEQ ID NO: 6): had ALP inducing activity

A-1-2: shorter peptide synthesized based on the sequence of A-1 (PGHPGY; 6 aa from 7 to 12 in sequence 9, 14, 33 and 34; listed as Homo sapiens)
concentration at which the peptide promotes the bioactivity (ALP inducing activity of HPDL cells), low concentration (cell culture system): 10 ng/mL
ALP inducing activity of HPDL cells (amelogenins and peptides based on 6 kDa amelogenin): promote ALP inducing activity

A-1: N-terminal side peptide synthesized based on the sequence of 6 kDa amelogenin (MPLPPHPGHPGYINF; 15 aa from 1 to 15 in sequence 14, 33 and 34; listed as Homo sapiens)
ALP inducing activity of HPDL cells (amelogenins and peptides based on 6 kDa amelogenin): showed the strong bioactivity

C-1: 15-residue peptide, position 132-146 of porcine 17 kDa sheath protein (VEGPMVQQQVAPSEK; 15 aa from 132 to 146 in sequence 10; listed as Sus scrofa)
ALP activity of HPDL cells (porcine sheath proteins and synthetic peptides) (50 μg/ml protein or peptide, TGF-β1 50 ng/ml, BMP-2 500 ng/ml, 10 nM 1α-25dihydroxy-Vitamin D3, 96 h): not so strong; also recorded: enhanced the ALP activity of the HPDL cells

SDKPPKPELPVDF (13 aa from 144 to 156 in sequence 36; listed as Homo sapiens) [H-2′]
ALP inducing activity of HPDL cells (Example 4) (peptides 50 μg/mL, TGF-β1 1 ng/mL, BMP-2 1 μg/mL, 10 nM 1α-25dihydroxy-vitamin D3, 96 h): showed the same inductive properties

B1: 25 kDa amelogenin: most abundant uncleaved porcine amelogenin polypeptide (protein, UniProt P45561 17-189, looked up)
Amelogenin: MPLPPHPGHPGYINFSYEVLTPLKWYQNMIRHPYTSYGYEPMGGWLHHQIIPVVSQQTPQSHALQPHHHIPMVPAQQPGIPQQPMMPLPGQHSMTPTQHHQPNLPLPAQQPFQPQPVQPQPHQPLQPQSPMHPIQPLLPQPPLPPMFSMQSLLPDLPLEAWPATDKTKREEVD
ALP inducing activity of HPDL cells (amelogenins and peptides based on 6 kDa amelogenin): activity like TGF-β1
